Laboratory results reported in PMC12274840 (The Journal of Biological Chemistry, 2025).
Converted amounts (≈) assume the structure as drawn. Like-named read-outs stand apart in the source and are kept apart here.

Key:
[1] = test system: E. coli KA797 cells carrying CTX-M-14 position 105 library; format: cell-based
[2] = test system: E. coli KA797 cells carrying NmcA position 105 library; format: cell-based
[3] = test system: E. coli KA797 cells carrying pUK21 with NmcA (pelB/Sec); test: microbe, parasite or virus in culture; format: cell-based; conditions: Escherichia coli, antibiotic alone
[4] = test system: E. coli KA797 cells carrying pUK21 with BlaC WT (Tat); test: microbe, parasite or virus in culture; format: cell-based; conditions: Escherichia coli, antibiotic alone
[5] = test system: E. coli KA797 cells carrying pUK21 vector without the β-lactamase gene; test: microbe, parasite or virus in culture; format: cell-based; conditions: Escherichia coli; antibiotic alone; pUK21 without β-lactamase gene; read-out: MIC
[6] = test system: E. coli KA797 cells carrying BlaC position 105 library; format: cell-based, Escherichia coli; conditions: ampicillin; for Fi AMP AVG: average of replicates

## CC1(C)S[C@@H]2[C@H](NC(=O)[C@H](N)c3ccccc3)C(=O)N2[C@H]1C(=O)O [ampicillin]
[1]; CTX-M-14 AA 105 Ala
  Significance of average fitness: -
[1]; CTX-M-14 AA 105 Arg
  Significance of average fitness: -
[1]; CTX-M-14 AA 105 Asn
  Significance of average fitness: -
[1]; CTX-M-14 AA 105 Asp
  Significance of average fitness: -
[1]; CTX-M-14 AA 105 Cys
  Significance of average fitness: -
[1]; CTX-M-14 AA 105 Gln
  Significance of average fitness: -
[1]; CTX-M-14 AA 105 Glu
  Significance of average fitness: -
[1]; CTX-M-14 AA 105 Gly
  Significance of average fitness: -
[1]; CTX-M-14 AA 105 His
  Significance of average fitness: -
[1]; CTX-M-14 AA 105 Ile
  Significance of average fitness: -
[1]; CTX-M-14 AA 105 Leu
  Significance of average fitness: -
[1]; CTX-M-14 AA 105 Lys
  Significance of average fitness: -
[1]; CTX-M-14 AA 105 Met
  Significance of average fitness: -
[1]; CTX-M-14 AA 105 Pro
  Significance of average fitness: -
[1]; CTX-M-14 AA 105 Ser
  Significance of average fitness: -
[1]; CTX-M-14 AA 105 Thr
  Significance of average fitness: -
[1]; CTX-M-14 AA 105 Val
  Significance of average fitness: -
[1]; CTX-M-14 WT (Tyr 105)
  WT abs Fi 2 (absolute fitness of wild type, Replicate 2): 0.605
[2]; NmcA AA 105 Ala
  Fi AVG (average fitness of replicates): -0.604
  Significance of average fitness: -
[2]; NmcA AA 105 Arg
  Fi AVG (average fitness of replicates): -0.595
  Significance of average fitness: -
[2]; NmcA AA 105 Asn
  Fi AVG (average fitness of replicates): -0.193
  Significance of average fitness: -
[2]; NmcA AA 105 Asp
  Fi AVG (average fitness of replicates): -0.514
  Significance of average fitness: -
[2]; NmcA AA 105 Cys
  Fi AVG (average fitness of replicates): -0.572
  Significance of average fitness: -
[2]; NmcA AA 105 Gln
  Fi AVG (average fitness of replicates): -0.362
  Significance of average fitness: -
[2]; NmcA AA 105 Glu
  Fi AVG (average fitness of replicates): -0.554
  Significance of average fitness: -
[2]; NmcA AA 105 Gly
  Fi AVG (average fitness of replicates): -0.012
[2]; NmcA AA 105 His
  Fi AVG (average fitness of replicates): 0.000
[2]; NmcA AA 105 Ile
  Fi AVG (average fitness of replicates): -0.668
  Significance of average fitness: -
[2]; NmcA AA 105 Leu
  Fi AVG (average fitness of replicates): -0.515
  Significance of average fitness: -
[2]; NmcA AA 105 Lys
  Fi AVG (average fitness of replicates): -0.761
  Significance of average fitness: -
[2]; NmcA AA 105 Met
  Fi AVG (average fitness of replicates): -0.296
  Significance of average fitness: -
[2]; NmcA AA 105 Phe
  Fi AVG (average fitness of replicates): -0.065
[2]; NmcA AA 105 Pro
  Fi AVG (average fitness of replicates): -0.462
  Significance of average fitness: -
[2]; NmcA AA 105 Ser
  Fi AVG (average fitness of replicates): -0.413
  Significance of average fitness: -
[2]; NmcA AA 105 Thr
  Fi AVG (average fitness of replicates): -0.905
  Significance of average fitness: -
[2]; NmcA AA 105 Trp
  Fi AVG (average fitness of replicates): 0.277
  Significance of average fitness: +
[2]; NmcA AA 105 Tyr
  Fi AVG (average fitness of replicates): 0.049
[2]; NmcA AA 105 Val
  Fi AVG (average fitness of replicates): -0.608
  Significance of average fitness: -
[2]; NmcA WT, replicate 1
  WT abs Fi 1 (absolute fitness): 0.229
[2]; NmcA WT, replicate 2
  WT abs Fi 2 (absolute fitness): 0.425
[3]
  MIC: 400 µg/mL (≈ 1140 µM)
[4]
  MIC: 50 µg/mL (≈ 143 µM)
[5]
  MIC: 10 µg/mL (≈ 28.6 µM)
[6]; AA 105 Ala
  Significance (Fi AMP AVG): +
  Fi AMP AVG: 0.883
[6]; AA 105 Ala, replicate 1
  Fi AMP 1: 0.406
[6]; AA 105 Ala, replicate 2
  Fi AMP 2: 1.100
[6]; AA 105 Ala, replicate 3
  Fi AMP 3: 1.141
[6]; AA 105 Arg
  Fi AMP AVG: 0.475
[6]; AA 105 Arg, replicate 1
  Fi AMP 1: 0.818
[6]; AA 105 Arg, replicate 2
  Fi AMP 2: -0.366
[6]; AA 105 Arg, replicate 3
  Fi AMP 3: 0.972
[6]; AA 105 Asn
  Fi AMP AVG: -0.118
[6]; AA 105 Asn, replicate 1
  Fi AMP 1: -0.339
[6]; AA 105 Asn, replicate 2
  Fi AMP 2: -0.227
[6]; AA 105 Asn, replicate 3
  Fi AMP 3: 0.211
[6]; AA 105 Asp
  Fi AMP AVG: 0.229
[6]; AA 105 Asp, replicate 1
  Fi AMP 1: 0.470
[6]; AA 105 Asp, replicate 3
  Fi AMP 3: -0.012
[6]; AA 105 Cys
  Significance (Fi AMP AVG): +
  Fi AMP AVG: 0.500
[6]; AA 105 Cys, replicate 1
  Fi AMP 1: 0.488
[6]; AA 105 Cys, replicate 2
  Fi AMP 2: 0.257
[6]; AA 105 Cys, replicate 3
  Fi AMP 3: 0.755
[6]; AA 105 Gln
  Fi AMP AVG: 0.694
[6]; AA 105 Gln, replicate 3
  Fi AMP 3: 0.694
[6]; AA 105 Glu
  Fi AMP AVG: 0.120
[6]; AA 105 Glu, replicate 1
  Fi AMP 1: -0.486
[6]; AA 105 Glu, replicate 2
  Fi AMP 2: 1.183
[6]; AA 105 Glu, replicate 3
  Fi AMP 3: -0.337
[6]; AA 105 Gly
  Fi AMP AVG: 0.342
[6]; AA 105 Gly, replicate 1
  Fi AMP 1: 0.540
[6]; AA 105 Gly, replicate 2
  Fi AMP 2: -0.133
[6]; AA 105 Gly, replicate 3
  Fi AMP 3: 0.619
[6]; AA 105 His
  Significance (Fi AMP AVG): +
  Fi AMP AVG: 2.187
[6]; AA 105 His, replicate 1
  Fi AMP 1: 2.095
[6]; AA 105 His, replicate 2
  Fi AMP 2: 2.262
[6]; AA 105 His, replicate 3
  Fi AMP 3: 2.205
[6]; AA 105 Ile (WT)
  Fi AMP AVG: 0.000
[6]; AA 105 Ile (WT), replicate 1
  Fi AMP 1: 0.000
[6]; AA 105 Ile (WT), replicate 2
  Fi AMP 2: 0.000
[6]; AA 105 Ile (WT), replicate 3
  Fi AMP 3: 0.000
[6]; AA 105 Leu
  Fi AMP AVG: 0.259
[6]; AA 105 Leu, replicate 1
  Fi AMP 1: 0.406
[6]; AA 105 Leu, replicate 2
  Fi AMP 2: -0.033
[6]; AA 105 Leu, replicate 3
  Fi AMP 3: 0.405
[6]; AA 105 Lys
  Fi AMP AVG: 0.741
[6]; AA 105 Lys, replicate 1
  Fi AMP 1: 0.741
[6]; AA 105 Met
  Fi AMP AVG: 0.434
[6]; AA 105 Met, replicate 1
  Fi AMP 1: 0.165
[6]; AA 105 Met, replicate 2
  Fi AMP 2: 0.714
[6]; AA 105 Met, replicate 3
  Fi AMP 3: 0.423
[6]; AA 105 Phe
  Significance (Fi AMP AVG): +
  Fi AMP AVG: 3.116
[6]; AA 105 Phe, replicate 1
  Fi AMP 1: 3.353
[6]; AA 105 Phe, replicate 2
  Fi AMP 2: 2.935
[6]; AA 105 Phe, replicate 3
  Fi AMP 3: 3.061
[6]; AA 105 Pro
  Fi AMP AVG: 0.423
[6]; AA 105 Pro, replicate 1
  Fi AMP 1: 0.675
[6]; AA 105 Pro, replicate 2
  Fi AMP 2: 0.012
[6]; AA 105 Pro, replicate 3
  Fi AMP 3: 0.583
[6]; AA 105 Ser
  Fi AMP AVG: 0.267
[6]; AA 105 Ser, replicate 1
  Fi AMP 1: 1.268
[6]; AA 105 Ser, replicate 2
  Fi AMP 2: -0.404
[6]; AA 105 Ser, replicate 3
  Fi AMP 3: -0.062
[6]; AA 105 Thr
  Fi AMP AVG: 0.222
[6]; AA 105 Thr, replicate 1
  Fi AMP 1: -0.283
[6]; AA 105 Thr, replicate 2
  Fi AMP 2: 0.921
[6]; AA 105 Thr, replicate 3
  Fi AMP 3: 0.029
[6]; AA 105 Trp
  Significance (Fi AMP AVG): +
  Fi AMP AVG: 3.126
[6]; AA 105 Trp, replicate 1
  Fi AMP 1: 3.329
[6]; AA 105 Trp, replicate 2
  Fi AMP 2: 2.872
[6]; AA 105 Trp, replicate 3
  Fi AMP 3: 3.175
[6]; AA 105 Tyr
  Significance (Fi AMP AVG): +
  Fi AMP AVG: 3.396
[6]; AA 105 Tyr, replicate 1
  Fi AMP 1: 3.695
[6]; AA 105 Tyr, replicate 2
  Fi AMP 2: 3.143
[6]; AA 105 Tyr, replicate 3
  Fi AMP 3: 3.349
[6]; AA 105 Val
  Fi AMP AVG: -0.310
[6]; AA 105 Val, replicate 1
  Fi AMP 1: -0.429
[6]; AA 105 Val, replicate 3
  Fi AMP 3: -0.191
[6]; WT (Ile 105) absolute fitness, replicate 1
  WT abs Fi 1: -1.907
[6]; WT (Ile 105) absolute fitness, replicate 2
  WT abs Fi 2: -1.350
[6]; WT (Ile 105) absolute fitness, replicate 3
  WT abs Fi 3: -1.353
